Legend:
[1] = tested on: dopamine transporter (DAT); assay: Dopaminergic neuronal protective activity in MPTP-treated C57BL/6 mouse: DAT protein level in striatum (Western blot); format: in vivo; conditions: 10 mg/kg oral at 30 min, 24 h, 48 h after MPTP s.c.; striatum 72 h after MPTP; mouse without MPTP = 100%
Experimental: (§1) Using a mouse having MPTP-induced dopaminergic neurons (Chan P. et al., J Neurochem, 57, 348-351 (1991)), the dopaminergic neuronal protective activity was evaluated based on the protein levels of tyrosine hydroxylase (TH) and dopamine transporter (DAT), which are dopaminergic neuronal marker proteins, and a dopamine content in the brain corpus striatum region after the compound administration (Mori A. et al., Neurosci Res, 51, 265-274 (2005)).
(§2) A male C57BL/6 mouse (provided by Japan Charles River Inc., 10 to 12 weeks) was used as a test animal. MPTP was dissolved in a physiological salt solution so that the concentration was 4 mg/ml, and then administered to the mouse subcutaneously in a volume of 10 ml/kg. A test compound was suspended in a 5% gum arabic/physiological salt solution (w/v) so that the concentration was 1 mg/ml. Each of the test compounds or solvents thereof was orally administered to the mouse after 30 minutes, 24 hours, and 48 hours of the MPTP administration. The mouse was decapitated after 72 hours of the MPTP administration, the brain was removed, and each side of the striatum was dissected.
(§3) The left striatum was used as a sample to detect the protein level by Western blot analysis. Each tissue was homogenized in a HEPES buffer sucrose solution (0.32 M sucrose, 4 μg/ml pepstatin, 5 μg/ml aprotinin, 20 μg/ml trypsin inhibitor, 4 μg/ml leupeptin, 0.2 mM phenylmethanesulfonyl fluoride, 2 mM ethylenediaminetetraacetic acid (EDTA), 2 mM ethylene glycol bis(β aminoethyl ether) tetraacetic acid, 20 mM HEPES, pH 7.2), and assayed for protein using a bicinchoninic acid kit for protein assay (provided by Pierce Corporation). Each homogenized sample, having an equal amount of protein that had been dissolved in a Laemmli sample buffer solution, was subjected to electrophoresis through a sodium dodecyl sulfate polyacrylamide gel. […] Subsequently, a horseradish peroxidase-labeled secondary antibody (a product of Amersham K.K.) for each primary antibody was fixed, and the chemiluminescence associated with enzyme activity of peroxidase was detected using a X-ray film. The density of the protein band on the film was analyzed using a densitometer (a product of Bio-rad Laboratories Inc.) to obtain the TH value relative to Na^+/K^+-ATPase and the DAT value relative to actin.
(§4) In both analyses, the value of the sample derived from the MPTP-induced mouse in which only the test compound or the solvent was administered was expressed relative to the value of the sample derived from the mouse without MPTP treatment (100%). Values were analyzed statistically using a nonclinical statistical analysis system, and values of significance probability less than 0.05 were defined as significant.

[2] = tested on: tyrosine hydroxylase (TH); assay: Dopaminergic neuronal protective activity in MPTP-treated C57BL/6 mouse: TH protein level in striatum (Western blot); format: in vivo; conditions: 10 mg/kg oral at 30 min, 24 h, 48 h after MPTP s.c.; striatum 72 h after MPTP; mouse without MPTP = 100%
Experimental: as §1, §2, §3, §4

[3] = tested on: dopamine content in the brain corpus striatum region; assay: Dopaminergic neuronal protective activity in MPTP-treated C57BL/6 mouse: dopamine content in striatum (HPLC); format: in vivo; conditions: 10 mg/kg oral at 30 min, 24 h, 48 h after MPTP s.c.; striatum 72 h after MPTP; mouse without MPTP = 100%
Experimental: as §1, §2
The right striatum, the tissue weight of which was measured immediately after dissection, was used as an analysis sample for determining the dopamine content. Each tissue was homogenized in a 0.1 N perchloric acid solution containing isoproterenol as an internal standard substance of the measurement, using an ultrasonic homogenizer while being cooled with ice. The supernatant obtained from 20,000 g of homogenate that had been centrifuged at 4° C. for 15 minutes was subjected to a high-performance liquid chromatography with a reversed phase column (a product of Eicom Corporation). A mobile phase 15% methanol 0.1 M citric acid/0.1 M sodium acetate buffer solution (containing 190 mg/L 1-sodium octane sulfonate and 5 mg/L EDTA, pH 3.5) was flowed at a rate of 0.5 ml/min, and the dopamine peak of each sample was detected using an electrochemical detector (applied voltage: +750 mV vs. Ag/AgCl, a product of Eicom Corporation). With reference to the identified dopamine peak, the dopamine content per tissue weight was calculated in each sample using analysis software (a product of Gilson Inc.).
as §4

[4] = tested on: human neuroblastoma cell lines SH-SY5Y treated with 1-methyl-4-phenylpyridinium (MPP+); assay: Improvement of mitochondrial function (Alamar Blue mitochondrial oxidation reduction activity) in MPP+-treated SH-SY5Y cells; format: cell-based; conditions: 1.5 mM MPP+, relative to cells in DMSO alone = 100%, read-out: Fluorescence Intensity (%); for activity at 0.01 µg/mL: compound 0.01 μg/ml; for activity at 0.03 µg/mL: compound 0.03 μg/ml; for activity at 0.1 µg/mL: compound 0.1 μg/ml; for activity at 0.3 µg/mL: compound 0.3 μg/ml; for activity at 1 µg/mL: compound 1 μg/ml
Experimental: In human neuroblastoma cell lines SH-SY5Y in which mitochondrial function was damaged by MPP^+ treatment (Bollimuntha S. et al., J Biol Chem, 280, 2132-2140 (2005) and Shang T. et al., J Biol Chem, 280, 34644-34653 (2005)), the improvement of mitochondrial function was evaluated on the basis of the measurement value for mitochondrial oxidation reduction activity using Alamar Blue fluorescent dye after the compound addition (Nakai M. et al, Exp Neurol, 179, 103-110 (2003)).
The human neuroblastoma cell lines SH-SY5Y were cultured in Dulbecco's Modified Eagle's Medium containing 10% fetal bovine serum (DMEM containing 50 units/ml penicillin and 50 μg/ml streptomycin as antibiotics) at 37° C. in the presence of 5% carbon dioxide. Cells were scattered on a poly-D-lysine-coated 96-well black plate at a concentration of 3−6×10^4 cells/cm^2 (medium amount: 100 μl/well) and cultured in the medium for two days. Further, the medium was changed to DMEM containing a 1% N2 supplement (N2-DMEM) or to a medium (100 μl/well) in which 1.5 mM MPP^+ was dissolved. The cells were cultured therein for 39 to 48 hours, and then subjected to a mitochondrial oxidation reduction activity measurement system. A sample compound that had been previously dissolved in dimethyl sulfoxide (DMSO) was diluted with N2-DMEM and added in a volume of 10 μl/well 24 hours before the activity measurement (final compound concentration: 0.01 to 1 μg/ml).
After removal of the medium by suction, a balanced salt solution containing 10% Alamar Blue (154 mM sodium chloride, 5.6 mM potassium chloride, 2.3 mM calcium chloride, 1.0 mM magnesium chloride, 3.6 mM sodium hydrogen carbonate, 5 mM glucose, 5 mM HEPES, pH 7.2) was added in a volume of 100 μl/well, and reacted in an incubator at 37° C. for 1 hour. The fluorescent intensity was detected using a fluorescence detector (a product of Hamamatsu Photonics K.K., excitation wavelength: 530 nm, measurement wavelength: 580 nm) to thereby measure the mitochondrial oxidation reduction activity.
The fluorescent intensity of the well of the cells cultured in a medium containing MPP^+ and each of the sample compounds was relatively evaluated based on the 100% fluorescent intensity of the well of the cells cultured in a medium containing DMSO alone (final concentration: 0.1%).

Row | Compound | Protein level of dopamine transporter (DAT) in the brain corpus striatum region (% of control) [1] | Protein level of tyrosine hydroxylase (TH) in the brain corpus striatum region (% of control) [2] | Dopamine content in the brain corpus striatum region (% of control) [3] | activity at 0.01 µg/mL [4] [%] | activity at 0.03 µg/mL [4] [%] | activity at 0.1 µg/mL [4] [%] | activity at 0.3 µg/mL [4] [%] | activity at 1 µg/mL [4] [%] | melting point [°C]
1 | CCCOc1ccc(C)c2c(=O)c(-c3ccc(OC)cc3)c[nH]c12 [Example 1, 3-(4-Methoxyphenyl)-5-methyl-8-propoxy-1H-quinolin-4-one] | 84.7 % of control | 86.2 % of control | 39.6 % of control | 58 | 68 | 73 | 66 | 46 | 192 to 193
2 | CCCOc1ccc(C2CC2)c2c(=O)c(-c3ccc(OC)cc3)c[nH]c12 [Example 65, 5-Cyclopropyl-3-(4-methoxyphenyl)-8-propoxy-1H-quinolin-4-one] | 73.0 % of control | 65.2 % of control | 31.2 % of control | 59 | 73 | 78 | 66 | 20 | 168 to 170
3 | COc1ccc(-c2c[nH]c3c(-n4ccnc4)ccc(C)c3c2=O)cc1 [Example 67, 8-Imidazol-1-yl-3-(4-methoxyphenyl)-5-methyl-1H-quinolin-4-one] | 50.9 % of control | 77.9 % of control | 26.7 % of control | 45 | 54 | 61 | 57 | 42 | 196 to 198
4 | CCCSc1ccc(C)c2c(=O)c(-c3ccc(OC)cc3)c[nH]c12 [Example 70, 3-(4-Methoxyphenyl)-5-methyl-8-propylsulfanyl-1H-quinolin-4-one] | 64.1 % of control | 90.2 % of control | 26.5 % of control | 48 | 56 | 61 | 50 | 22 | 132 to 135
